From PMC4826283 (Journal of nuclear medicine : official publication, Society …, 2014)

Tested on: kappa opioid receptor (KOR)
Experiment: in vivo PET receptor occupancy
Assay type: cell-based, Macaca mulatta
Details: rhesus monkey, brain

Cc1cc(C)cc([C@@H]2CCCN2Cc2ccc(Oc3ccc(C(N)=O)cc3F)cc2)c1 [LY2456302]
% occupancy at 0.3 mg/kg: 93 % occupancy at 0.3 mg/kg
